Paper PMC8110578, “Phenylethynylbenzyl-modified biguanides inhibit pancreatic cancer tumor growth” (Scientific Reports, 2021)
Where “and” joins values, the source holds several entries; their conditions need not be identical. Equal entries are not always repeated. Where two headings read alike, the source gives them in different places.

Tests used:
[1] = U-tube experiment (partition across a bulk hydrophobic solvent); type: physicochemical; conditions: 250 µM on cis side; for Crossing to the trans-aqueous side of the U-tube (in words): up to 72 h; for Trans-side concentration, mean / Trans-side concentration, single replicates: 25°C
Protocol: (§1) Figure 2 (A) Partition of compounds in an U-tube experiment. Concentration of biguanide on the trans-side of the U-tube at 48 h and 72 h at 25 °C, after addition of 250 µM of biguanide on the cis-side. (B) Variation in the internal pH of HPTS-containing EYPC liposomes. Intravesicular solution: 1 mM HPTS, 10 mM HEPES, and 100 mM NaCl, adjusted to pH = 7.4, and extravesicular solution: 10 mM HEPES and 100 mM NaCl, adjusted to pH = 7.4. Biguanidiums were injected after 50 s at 5 mM (50 mol% relative to the 10 mM EYPC concentration), a NaOH pulse was induced at 300 s, and the liposomes were lysed with Triton-X at 550 s. Each curve is the average of three independent measurements. (C) Fluorescence of safranin O in the EYPC liposomes. Biguanidium salts were injected at 5 mM (50 mol% relative to the 10 mM EYPC concentration) at 50 s. Each curve is the average of three independent measurements. […] Mitochondrial isolation was performed according to the previously reported protocol.
Experimental. U-tube experiment was prepared by adding 800 µL of dichloromethane in a U-shaped tube as a representation of the hydrophobic lipid membrane. On the receiving end (trans side) of the tube was added 300 µL of distilled water while the other side (cis side) was filled with 300 µL of a 250 µM solution of the compound of interest at 25°C. At 48h and 72h, 100 µL aliquot of the trans side was diluted in 900 µL methanol and monitored by LCMS (292 m/z). Area under curve (AUC) was measured and fitted on a calibration curve.

[2] = HPTS assay, internal pH of EYPC liposomes; conditions: 5 mM (50 mol% relative to 10 mM EYPC), NaOH pulse at 300 s
Protocol: as §1

KP4 cells [3] = experiment: Growth assay (crystal violet), KP4 cells; type: cell-based, human; conditions: for IC50: KP4 cells
Protocol: (§2) All chemicals were purchased from Aldrich Chemicals in their highest purity and used without further purification. Deuterated dimethylsulfoxide (DMSO-d^6) and deuterated chloroform (CDCl3) were purchased from CDN Isotopes. NMR spectra were recorded on Bruker advance 400 and 100 spectrometers. Coupling constants are given in hertz (Hz) and chemical shifts are given in parts per million (ppm, δ) measured relative to the residual solvent (the multiplicity of the signals are given as s: singlet, d: doublet, t: triplet, and m: multiplet). High-resolution mass spectra (HRMS) were recorded on a TSQ Quantum Ultra (Thermo Scientific) triple quadrupole with accurate mass option instrument (Université de Montréal Mass Spectrometry Facility). MS experiences were performed using an UltrafleXtreme MALDI TOF/TOF mass spectrometer equipped with a SmartBeam II Nd:Yag/355 nm laser operating at 1 kHz and providing a laser focus down to 20 μm in diameter (Bruker Daltonics, Billerica, MA). The data acquisition for MS was performed in positive ion mode using the linear geometry with flexControl 3.4 (Bruker Daltonics, Billerica, MA). Acceleration voltage was set to + 25 kV and all other instrumental parameters (delayed extraction parameters, source voltages, detector gain, laser energy, etc.) were optimized for maximum S/N for the drug compounds. L-α-Phosphatidylcholine was purchased from Avanti Polar Lipids. Transport and depolarization studies as well as absorbance measurements were performed on a Varian Cary Eclipse fluorescence spectrophotometer. The hemolysis assays were performed on a Fluostar Optima plate reader. Single crystals of C18H18F3N5O3S were obtained from chloroform. A suitable crystal was selected and analysed on a Bruker Venture Metaljet diffractometer. Crystal violet retention assay was used for cell growth assays and IC50 were determined using Prism (GraphPad). NAD/NADH quantitation colorimetric kit (#K337-100) from Biovision was used according to manufacturer’s instructions. ECAR (extracellular acidification rate) and OCR of KP4 cells (oxygen consumption rate) were measured on a Seahorse XF-24 (Agilent).
Experimental. KP4 (Riken RCB1005) and PSN1 (ATCC: CRM-CRL-3211), were cultured in Dulbecco's modified Eagle's medium (DMEM) (Wisent, St-Bruno, QC) supplemented with 10 % of fetal bovine serum (FBS) (Wisent). HPNE hTERT (ATCC: CRL1423) were cultured in a mix of 75% DMEM without glucose (Sigma Cat#. D-5030) with additional 2 mM L-glutamine and 1.5 g/L sodium bicarbonate, 25% Medium M3 Base (Incell Corp. Cat# M300F- 500), fetal bovine serum 5% (wisent 10 ng/ml human recombinant EGF (Sigma-Aldrich), 5.5 mM D-glucose (Sigma-Aldrich), 750 ng/ml puromycin (Sigma-Aldrich). For dose-response assays, cells were seeded in 96 well plates (company). After 24 h, treatments were applied and cells were grown for 3 more days. Crystal violet retention assay used for cell growth assays were described previously^2. The data is expressed as relative absorbance of crystal violet extracted from the cells and diluted in 10 % acetic acid. IC50 were determined using Prism (GraphPad). Tumor spheres were grew according to Ferbeyre et al^3.

[4] = Safranin O assay, membrane potential of EYPC liposomes; conditions: 5 mM (50 mol% relative to 10 mM EYPC)
Protocol: as §1

AH375 cells = experiment: Tumor sphere formation, AH375 cells; type: cell-based, mouse; conditions: 24 h treatment
KP4 cells [5] = experiment: Seahorse analysis of OCR and ECAR, KP4 cells; type: cell-based, human; conditions: 1b 15 µM; for Effect on ECAR (extracellular acidification rate): metformin; for Effect on oxygen consumption rate (OCR): metformin 5 mM
Description: Figure 3 Effects of biguanides on cell proliferation and viability in pancreatic cancer cells. […]. […] | decimal sign comma or point
Next, we used the Seahorse analyser to quantify the ability of compound 1b to affect oxygen consumption rate (OCR) in KP4 cells. […]. […] […].
as §2
Experimental. ECAR (extracellular acidification rate) and OCR of KP4 cells (oxygen consumption rate) were measured on a Seahorse XF-24 (Agilent). The day before the experiment, KP4 cells were seeded in XF24 FluxPak seahorse plates (Agilent) at a density of 40.000 cells per well, in usual KP4 culture medium (DMEM, 10% FSB). […]

[6] = Homo sapiens, KP-4, 72 h, 72 hours, read-out: IC50

| SMILES | Crossing to the trans-aqueous side of the U-tube (in words) [1] | Trans-side concentration, mean ([1]; 48h) | Trans-side concentration, single replicates ([1]; 48h) | Trans-side concentration, mean ([1]; 72h) | Trans-side concentration, single replicates ([1]; 72h) | Change of internal vesicular pH (HPTS) [2] | IC50 (KP4 cells [3]; [6]) | IC50 fold lower than phenformin (KP4 cells [3]; KP4 and Panc1 cells) | IC50 (KP4 cells [3]; 3 days treatment, crystal violet retention assay, read-out: IC50 KP4) | Fold more active than metformin (KP4 cells [3]; conclusion) | Membrane depolarization (Safranin-O fluorescence) [4] | Decrease of the number of AH375 spheres (AH375 cells; 5 µM) | Effect on ECAR (extracellular acidification rate) (KP4 cells [5]) | Effect on oxygen consumption rate (OCR) (KP4 cells [5]) | Decrease of the number of AH375 spheres (AH375 cells; 1 mM) |
| --- | --- | --- | --- | --- | --- | --- | --- | --- | --- | --- | --- | --- | --- | --- | --- |
| N=C(N)NC(=N)NCc1ccc(C#Cc2ccccc2)cc1 [1b, 4-(phenylethynyl)benzylbiguanide] | able to partition rapidly into the chloroform and cross to the trans-aqueous side | 64,7 µM | 90,1 µM and 57,1 µM and 46,8 µM | 92,3 µM | 78,6 µM and 99,3 µM and 99,1 µM | basification of the internal vesicular pH | 6.1 µM | 8–12 fold | 6.13 µM | 1000 fold | depolarization of the membrane | 75% | also observed with compound 1b | inhibited OCR |  |
| CN(C)C(=N)NC(=N)N [metformin, 1,1-dimethylbiguanide, reference compound] | only traces |  |  |  |  | no membrane activity | ~5000 µM |  |  |  | did not show this activity |  | increase of the ECAR | Inhibition of OCR | 50% |
